Assay results published in publication PMC9867380, “Ageing Curtails the Diversity and Functionality of Nascent CD8^+ T Cell Responses against SARS-CoV-2” (Vaccines, 2023).
Like-named read-outs stand apart in the source and are kept apart here.

How the values were obtained:
[1] = test system: primed CD8^+ T cells (PBMCs from HLA-A2 donors); format: cell-based, human
[2] = molecular target: T1, HLA-A2 (Homo sapiens, UniProt P04439, D140Y/D185E/D98H/E176V/E277Q/G131W/G231S/I119V/I121R/I166T/I218V/L300P/L318F/N151K/N90K/P208A/P217A/Q86G/Q94H/R138H/R169H/T345S); assay: HLA–peptide binding assay (surface stabilization of HLA-A2 on T2 cells); details: differences especially at 10^−5 M and 10^−6 M
T1 construct: T2 cells, a lymphoma-derived line expressing low amounts of HLA-A2; endogenous in cells; host or cells: T2 cells

[3] = old donors (65–69 years, n = 8), peptide 1 μM, day 10 after priming, 24 h ELISpot, positive above 50 SFUs per 10^6 cells

| Sequence | IFN-γ responses in old donors [1] | IFN-γ responses in old donors [1, 3] | Relative affinity for HLA-A2 (binding hierarchy among the peptides) [2] |
| --- | --- | --- | --- |
| HLVDFQVTI [HLA-A2-restricted SARS-CoV-2 peptide from ORF6, residues 3–11] | limited to a single donor |  |  |
| KIADYNYKL [HLA-A2-restricted SARS-CoV-2 spike-derived peptide, residues 417–425] |  | no responses |  |
| LLYDANYFL [HLA-A2-restricted SARS-CoV-2 peptide from ORF3a, residues 139–147] |  | limited to a single donor |  |
| MLDMYSVML [HLA-A2-restricted SARS-CoV-2 peptide from RdRpol, residues 5291–5299] |  | limited to a single donor |  |
| SLVKPSFYV [HLA-A2-restricted SARS-CoV-2 peptide from protein E, residues 50–58] |  | limited to a single donor |  |
| TLDSKTQSL [HLA-A2-restricted SARS-CoV-2 spike-derived peptide, residues 109–117] |  | no responses | lowest relative affinities |
| YLQPRTFLL [HLA-A2-restricted SARS-CoV-2 spike-derived peptide, residues 269–277] |  |  | lowest relative affinities |
